From US8722663B2, “Di-substituted pyridine derivatives as anticancers” (Otsuka Pharmaceutical Co., Ltd., priority 2010, dated 2014)

Tests used:
[1] = test system: human prostate (carcinoma) cell line (DU 145); assay: Growth inhibition of DU 145 cells, WST-8 assay; assay type: cell-based; details: 120 h, 5 days with test compound
Outline: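 DU 145 cells in RPMI 1640 with 10% FBS were pre-incubated 24 h at 37° C, 5% CO2, then exposed to compound for 5 days. Growth was read by WST-8 reduction (OD 450 minus 630 nm, cell-free blank subtracted). IC50 was taken relative to untreated control.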

[2] = test system: human prostate (carcinoma) cell line (LNCaP.FGC); assay: Growth inhibition of LNCaP.FGC cells, WST-8 assay; assay type: cell-based; details: 120 h, 5 days with test compound
Outline: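 Bicalutamide-resistant LNCaP-Bic cells (and parental LNCaP.FGC) in RPMI 1640 + 10% FBS were preincubated 24 h at 37 °C, 5% CO2, then exposed to compound for 5 days. Growth read by WST-8, OD 450 nm minus 630 nm, cell-free blank subtracted; IC50 (nM) taken relative to untreated control.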

[3] = test system: human hepatic cancer cell line (HuH-7); assay: Growth inhibition of HuH-7 cells, sulforhodamine B method; assay type: cell-based; details: Homo sapiens, 120 h, 5 days with test compound
PSA = assay: Plasma levels of PSA in LNCaP-Bic tumor bearing nude mice, ELISA; assay type: in vivo; details: Mus musculus, po, 336 h; 10 mg/kg/day orally, once daily, 14 consecutive days; plasma PSA by ELISA; read-out: T/C(%) (10 mg/kg/day), plasma levels of PSA treated/control
Protocol: (§1) Human prostate cancer cells (LNCaP-Bic) were transplanted in nude mice (6 males/group) and the inhibitory effect of the invention on their growth was examined. In the study, the tumor cell suspension with matrigel was inoculated at 0.12 mL/body (2.4×10^6 cells/body) into the subcutaneous space of the right axillary region to prepare tumor bearing mice. When the tumor diameter became 5 mm or more, the animals were allocated to groups based on the tumor volume. The test compound was administered orally as a suspension in 5% gum arabic, once daily, for 14 consecutive days. The control group received 5% gum arabic. Tumor volumes were measured on the following day of the last administration. Tumors were removed and the wet weight of the tumor was measured using an electronic balance. The ratio of the tumor weight in the treated group to that in the control group (T/C %) was calculated as the index for the effect. T/C %=(Mean tumor weight in the treatment group/Mean tumor weight in the control group)×100.
The heparinized blood was collected from the postcava under diethylether anesthesia. The plasma levels of PSA were measured using ELISA. The ratio of the plasma levels of PSA in the treated group to that in the control group (T/C %) was calculated as the index for the effect. T/C %=(Mean plasma levels of PSA in the treatment group/Mean plasma levels of PSA in the control group)×100.

[4] = test system: human prostate (adenocarcinoma) cell line (VcaP); assay: Growth inhibition of VcaP cells, WST-8 assay; assay type: cell-based; details: 120 h, 5 days with test compound
Outline: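 Cells in RPMI 1640 with 10% FBS were preincubated 24 h at 37° C., 5% CO2, then exposed to compound for 5 days. Growth read by WST-8 at 450 nm minus 630 nm, cell-free background subtracted. IC50 derived relative to untreated control.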

[5] = test system: human prostate (adenocarcinoma) cell line (PC-3); assay: Growth inhibition of PC-3 cells, WST-8 assay; assay type: cell-based; details: 120 h, 5 days with test compound
Outline: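 Cells seeded in RPMI 1640 with 10% FBS, grown 24 h at 37 °C, 5% CO2, then exposed to compound for 5 days. WST-8 read-out, OD 450 nm minus 630 nm reference, cell-free blank subtracted. IC50 (nM) from growth relative to compound-free control.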

[6] = test system: bicalutamide resistant human prostate cancer cell line established from LNCaP.FGC (LNCaP-Bic); assay: Growth inhibition of LNCaP-Bic cells, WST-8 assay; assay type: cell-based; details: 120 h, 5 days with test compound
Outline: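 Cells in RPMI 1640 with 10% FBS preincubated 24 h at 37 °C, 5% CO2, then exposed to compound for 5 days. WST-8 read-out, OD 450 minus 630 nm after cell-free blank subtraction; IC50 (nM) derived against untreated control growth.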

[7] = test system: Human prostate cancer cells (LNCaP-Bic); assay: Antitumor effect on LNCaP-Bic tumors transplanted in nude mice, tumor weight; assay type: in vivo; details: Mus musculus, po, 336 h, 10 mg/kg/day orally, once daily, 14 consecutive days, read-out: T/C(%) (10 mg/kg/day), tumor weight treated/control
Protocol: as §1

[8] = test system: human breast cancer cell line (MDA-MB-468); assay: Growth inhibition of MDA-MB-468 cells, sulforhodamine B method; assay type: cell-based; details: 120 h, 5 days with test compound
Outline: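 MDA-MB-468 cells in DMEM/10% FBS were incubated 24 h at 37° C., then exposed to compound for 5 days. After TCA fixation and sulforhodamine B staining, OD 492 nm minus 690 nm was read with cell-free background subtracted. IC50 was set against untreated control.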

| Compound | IC50 [1] [nM] | IC50 [2] [nM] | IC50 [3] [nM] | melting point [°C] | response vs control in vivo at 10 mg/kg (PSA) [%] | IC50 [4] [nM] | IC50 [5] [nM] | IC50 [6] [nM] | response vs control in vivo at 10 mg/kg [7] [%] | IC50 [8] [nM] |
| --- | --- | --- | --- | --- | --- | --- | --- | --- | --- | --- |
| Cc1ccc(COc2ccc(Oc3c(C)cc(/C=C/C(=O)N4CCN(Cc5ccc(CCOc6ccc(F)cc6)cc5)CC4)cc3Cl)nc2)cc1.Cl [Example 430, (E)-3-[3-Chloro-5-methyl-4-({5-[(4-methylbenzyl)oxy]pyridin-2-yl}oxy)phenyl]-1-(4-{4-[2-(4-fluorophenoxy)ethyl]benzyl}piperazin-1-yl)prop-2-en-1-one hydrochloride] | < 10 | < 10 | < 10 | 227.1 to 227.2 | < 50 | < 10 | < 10 | < 10 | < 50 | < 10 |
| Cc1ccc(COc2ccc(Oc3c(C)cc(/C=C/C(=O)N4CCN(Cc5ccc(CCOc6ccc(C)cc6)cc5)CC4)cc3Cl)nc2)cc1.Cl [Example 432, (E)-3-[3-Chloro-5-methyl-4-({5-[(4-methylbenzyl)oxy]pyridin-2-yl}oxy)phenyl]-1-(4-{4-[2-(4-methylphenoxy)ethyl]benzyl}piperazin-1-yl)prop-2-en-1-one hydrochloride] | < 10 | < 10 | < 10 | 232.1 to 232.7 | < 50 | < 10 | < 10 | < 10 | < 50 | < 10 |
| Cc1cc(/C=C/C(=O)N2CCN(Cc3ccc(CCOc4ccc(F)cc4)cc3)CC2)cc(Cl)c1Oc1ccc(OCc2ccc(F)cc2)cn1.Cl [Example 435, (E)-3-[3-Chloro-4-({5-[(4-fluorobenzyl)oxy]pyridin-2-yl}oxy)-5-methylphenyl]-1-(4-{4-[2-(4-fluorophenoxy)ethyl]benzyl}piperazin-1-yl)prop-2-en-1-one hydrochloride] | < 10 | < 10 | < 10 | 214.3 to 216.2 | < 50 | < 10 | < 10 | < 10 | < 50 | < 10 |
| Cc1ccc(OCCc2ccc(CN3CCN(C(=O)/C=C/c4cc(C)c(Oc5ccc(OCc6ccc(Cl)cc6)cn5)c(Cl)c4)CC3)cc2)cc1.Cl [Example 777, (E)-3-[3-chloro-4-({5-[(4-chlorobenzyl)oxy]pyridin-2-yl}oxy)-5-methylphenyl]-1-(4-{4-[2-(4-methylphenoxy)ethyl]benzyl}piperazin-1-yl)prop-2-en-1-one hydrochloride] | < 10 | < 10 | < 10 | 220.1 to 220.3 | < 50 | < 10 | < 10 | < 10 | < 50 | < 10 |
